From patent publication US20260125371A1, “METHOD FOR INHIBITING CLOSTRIDIOIDES DIFFICILE SPORE GERMINATION” (UNIVERSITY OF NOTRE DAME DU LAC, priority 2022, published 2026)
Values after ≈ are worked out from the molar mass of the structure shown. Where two headings read alike, the source gives them in different places.

Experiments:
[1] = tested on: C. difficile ATCC 43255; assay: Determination of minimal-inhibitory concentrations (microdilution), C. difficile ATCC 43255; assay type: cell-based, Clostridioides difficile; details: Clostridioides difficile
[2] = tested on: S. aureus; assay: MIC against S. aureus strains; assay type: cell-based; details: Staphylococcus aureus, ATCC29213, 24 h, S. aureus ATCC 29213, 24 h; read-out: MIC (μg/mL) 24 h
[3] = tested on: C. difficile ATCC 43255; details: cited from earlier work
[4] = tested on: C. difficile strains; details: cited from earlier work
[5] = tested on: Bacteroides fragilis HM-709; details: cited from earlier work
[6] = tested on: Bifidobacterium longum HM-846; details: cited from earlier work
[7] = tested on: Fusobacterium nucleatum HM-992; details: cited from earlier work
[8] = tested on: Lactobacillus reuteri HM-102; details: cited from earlier work
[9] = tested on: Lactobacillus gasseri HM-644; details: cited from earlier work
[10] = tested on: Veillonella sp. HM-49; details: cited from earlier work
[11] = C. difficile strains of Table 4

SMILES: Oc1ccc(-c2nc(-c3ccc(OC4CCCC4)cc3)no2)cc1 [Compound 2]
- MIC ([1]; ATCC43255, 24 h, C. difficile ATCC 43255, 24 h, read-out: MIC (μg/mL) 24 h): 2 µg/mL (≈ 6.2 µM)
- MIC ([1]; ATCC43255, Table 1, strain ATCC 43255, read-out: MIC C. difficile): 2 µg/mL (≈ 6.2 µM)
- MIC [2]: 2 µg/mL (≈ 6.2 µM)
- MIC ([3]; C. difficile ATCC43255): 2 µg/mL (≈ 6.2 µM)
- MIC ([3]; C. difficile ATCC 43255, earlier publication): 2 µg/mL (≈ 6.2 µM)
- MIC ([3]; strain ATCC43255): 2 µg/mL (≈ 6.2 µM)
- IMIC50 (101 strains) ([4]; 101 C. difficile strains): 2 µg/mL
- MIC90 (101 strains) ([4]; 101 C. difficile strains): 4 µg/mL (≈ 12.4 µM)
- MIC ([4]; C. difficile 23828, resistant to FDX): 4 µg/mL (≈ 12.4 µM)
- MIC ([4]; C. difficile 24531, resistant to VAN): 4 µg/mL (≈ 12.4 µM)
- MIC ([4]; C. difficile 26675, resistant to MTZ): 4 µg/mL (≈ 12.4 µM)
- MIC ([4]; C. difficile BAA-1803): 2 µg/mL (≈ 6.2 µM)
- MIC ([4]; C. difficile BAA-1870): 2 µg/mL (≈ 6.2 µM)
- MIC ([4]; C. difficile NR49292): 2 µg/mL (≈ 6.2 µM)
- MIC ([4]; C. difficile NR49294): 2 µg/mL (≈ 6.2 µM)
- MIC ([4]; C. difficile NR49302): 2 µg/mL (≈ 6.2 µM)
- MIC ([4]; C. difficile NR49305): 2 µg/mL (≈ 6.2 µM)
- MIC ([4]; C. difficile NR49310): 4 µg/mL (≈ 12.4 µM)
- MIC ([4]; C. difficile NR49318): 4 µg/mL (≈ 12.4 µM)
- MIC50 [4, 11]: 2 µg/mL (≈ 6.2 µM)
- MIC90 [4, 11]: 4 µg/mL (≈ 12.4 µM)
- MIC90 ([4]; C. difficile, reported earlier): 4 µg/mL (≈ 12.4 µM)
- MIC ([4]; strain ATCC43598): 2 µg/mL (≈ 6.2 µM)
- MIC ([4]; strain BAA-1801): 2 µg/mL (≈ 6.2 µM)
- MIC ([4]; strain BAA-1803): 2 µg/mL (≈ 6.2 µM)
- MIC ([4]; strain BAA-1804): 2 µg/mL (≈ 6.2 µM)
- MIC ([4]; strain BAA-1812): 2 µg/mL (≈ 6.2 µM)
- MIC ([4]; strain BAA-1814): 2 µg/mL (≈ 6.2 µM)
- MIC ([4]; strain BAA-1870): 2 µg/mL (≈ 6.2 µM)
- MIC ([4]; strain HM-88): 4 µg/mL (≈ 12.4 µM)
- MIC ([4]; strain HM-89): 4 µg/mL (≈ 12.4 µM)
- MIC ([4]; strain HM-745): 4 µg/mL (≈ 12.4 µM)
- MIC ([4]; strain HM-746): 4 µg/mL (≈ 12.4 µM)
- MIC ([4]; strain HM-747): 4 µg/mL (≈ 12.4 µM)
- MIC ([4]; strain NR49292): 2 µg/mL (≈ 6.2 µM)
- MIC ([4]; strain NR49294): 2 µg/mL (≈ 6.2 µM)
- MIC ([4]; strain NR49302): 2 µg/mL (≈ 6.2 µM)
- MIC ([4]; strain NR49305): 2 µg/mL (≈ 6.2 µM)
- MIC ([4]; strain NR49310): 4 µg/mL (≈ 12.4 µM)
- MIC ([4]; strain NR49318): 4 µg/mL (≈ 12.4 µM)
- MIC ([4]; strain NR-13427): 2 µg/mL (≈ 6.2 µM)
- MIC ([4]; strain NR-13428): 4 µg/mL (≈ 12.4 µM)
- MIC ([4]; strain NR-13429): 4 µg/mL (≈ 12.4 µM)
- MIC ([4]; strain NR-13430): 2 µg/mL (≈ 6.2 µM)
- MIC ([4]; strain NR-13431): 2 µg/mL (≈ 6.2 µM)
- MIC ([4]; strain NR-13433): 4 µg/mL (≈ 12.4 µM)
- MIC ([4]; strain NR-13434): 2 µg/mL (≈ 6.2 µM)
- MIC ([4]; strain NR-13435): 4 µg/mL (≈ 12.4 µM)
- MIC ([4]; strain NR-13436): 4 µg/mL (≈ 12.4 µM)
- MIC ([4]; strain NR-13437): 4 µg/mL (≈ 12.4 µM)
- MIC ([4]; strain NR-13438): 2 µg/mL (≈ 6.2 µM)
- MIC ([4]; strain NR-13553): 2 µg/mL (≈ 6.2 µM)
- MIC ([4]; strain NR-32882): 2 µg/mL (≈ 6.2 µM)
- MIC ([4]; strain NR-32883): 2 µg/mL (≈ 6.2 µM)
- MIC ([4]; strain NR-32884): 2 µg/mL (≈ 6.2 µM)
- MIC ([4]; strain NR-32885): 4 µg/mL (≈ 12.4 µM)
- MIC ([4]; strain NR-32886): 2 µg/mL (≈ 6.2 µM)
- MIC ([4]; strain NR-32887): 4 µg/mL (≈ 12.4 µM)
- MIC ([4]; strain NR-32888): 4 µg/mL (≈ 12.4 µM)
- MIC ([4]; strain NR-32889): 4 µg/mL (≈ 12.4 µM)
- MIC ([4]; strain NR-32890): 2 µg/mL (≈ 6.2 µM)
- MIC ([4]; strain NR-32891): 4 µg/mL (≈ 12.4 µM)
- MIC ([4]; strain NR-32892): 4 µg/mL (≈ 12.4 µM)
- MIC ([4]; strain NR-32895): 2 µg/mL (≈ 6.2 µM)
- MIC ([4]; strain NR-32896): 2 µg/mL (≈ 6.2 µM)
- MIC ([4]; strain NR-32897): 2 µg/mL (≈ 6.2 µM)
- MIC ([4]; strain NR-32900): 4 µg/mL (≈ 12.4 µM)
- MIC ([4]; strain NR-32903): 2 µg/mL (≈ 6.2 µM)
- MIC ([4]; strain NR-32904): 2 µg/mL (≈ 6.2 µM)
- MIC ([4]; strain NR-49277): 2 µg/mL (≈ 6.2 µM)
- MIC ([4]; strain NR-49278): 2 µg/mL (≈ 6.2 µM)
- MIC ([4]; strain NR-49279): 2 µg/mL (≈ 6.2 µM)
- MIC ([4]; strain NR-49280): 4 µg/mL (≈ 12.4 µM)
- MIC ([4]; strain NR-49281): 4 µg/mL (≈ 12.4 µM)
- MIC ([4]; strain NR-49282): 4 µg/mL (≈ 12.4 µM)
- MIC ([4]; strain NR-49283): 4 µg/mL (≈ 12.4 µM)
- MIC ([4]; strain NR-49284): 4 µg/mL (≈ 12.4 µM)
- MIC ([4]; strain NR-49285): 2 µg/mL (≈ 6.2 µM)
- MIC ([4]; strain NR-49286): 2 µg/mL (≈ 6.2 µM)
- MIC ([4]; strain NR-49287): 2 µg/mL (≈ 6.2 µM)
- MIC ([4]; strain NR-49288): 2 µg/mL (≈ 6.2 µM)
- MIC ([4]; strain NR-49289): 2 µg/mL (≈ 6.2 µM)
- MIC ([4]; strain NR-49290): 4 µg/mL (≈ 12.4 µM)
- MIC ([4]; strain NR-49291): 2 µg/mL (≈ 6.2 µM)
- MIC ([4]; strain NR-49293): 2 µg/mL (≈ 6.2 µM)
- MIC ([4]; strain NR-49295): 4 µg/mL (≈ 12.4 µM)
- MIC ([4]; strain NR-49296): 4 µg/mL (≈ 12.4 µM)
- MIC ([4]; strain NR-49297): 2 µg/mL (≈ 6.2 µM)
- MIC ([4]; strain NR-49298): 4 µg/mL (≈ 12.4 µM)
- MIC ([4]; strain NR-49299): 2 µg/mL (≈ 6.2 µM)
- MIC ([4]; strain NR-49300): 2 µg/mL (≈ 6.2 µM)
- MIC ([4]; strain NR-49301): 2 µg/mL (≈ 6.2 µM)
- MIC ([4]; strain NR-49303): 2 µg/mL (≈ 6.2 µM)
- MIC ([4]; strain NR-49304): 4 µg/mL (≈ 12.4 µM)
- MIC ([4]; strain NR-49306): 4 µg/mL (≈ 12.4 µM)
- MIC ([4]; strain NR-49307): 4 µg/mL (≈ 12.4 µM)
- MIC ([4]; strain NR-49308): 2 µg/mL (≈ 6.2 µM)
- MIC ([4]; strain NR-49309): 2 µg/mL (≈ 6.2 µM)
- MIC ([4]; strain NR-49311): 2 µg/mL (≈ 6.2 µM)
- MIC ([4]; strain NR-49312): 4 µg/mL (≈ 12.4 µM)
- MIC ([4]; strain NR-49313): 2 µg/mL (≈ 6.2 µM)
- MIC ([4]; strain NR-49314): 2 µg/mL (≈ 6.2 µM)
- MIC ([4]; strain NR-49315): 4 µg/mL (≈ 12.4 µM)
- MIC ([4]; strain NR-49316): 4 µg/mL (≈ 12.4 µM)
- MIC ([4]; strain NR-49317): 4 µg/mL (≈ 12.4 µM)
- MIC ([4]; strain NR-49319): 4 µg/mL (≈ 12.4 µM)
- MIC ([4]; strain NR-49320): 2 µg/mL (≈ 6.2 µM)
- MIC ([4]; strain NR-49321): 4 µg/mL (≈ 12.4 µM)
- MIC ([4]; strain NR-49323): 4 µg/mL (≈ 12.4 µM)
- MIC ([4]; strain NR-49324): 4 µg/mL (≈ 12.4 µM)
- MIC ([4]; strain NR-49325): 4 µg/mL (≈ 12.4 µM)
- MIC ([4]; strain NR-49326): 2 µg/mL (≈ 6.2 µM)
- MIC ([4]; strain NR-49327): 2 µg/mL (≈ 6.2 µM)
- MIC ([4]; strain NR-49328): 2 µg/mL (≈ 6.2 µM)
- MIC ([4]; strain NR-49329): 2 µg/mL (≈ 6.2 µM)
- MIC ([4]; strain RMA23691): 4 µg/mL (≈ 12.4 µM)
- MIC ([4]; strain RMA23828): 4 µg/mL (≈ 12.4 µM)
- MIC ([4]; strain RMA24531): 4 µg/mL (≈ 12.4 µM)
- MIC ([4]; strain RMA24923): 4 µg/mL (≈ 12.4 µM)
- MIC ([4]; strain RMA26675): 4 µg/mL (≈ 12.4 µM)
- MIC ([4]; strain RMA27081): 4 µg/mL (≈ 12.4 µM)
- MIC ([4]; strain RMA27173): 4 µg/mL (≈ 12.4 µM)
- MIC [5]: 2 µg/mL (≈ 6.2 µM)
- MIC [6]: 1 µg/mL (≈ 3.1 µM)
- MIC [7]: 2 µg/mL (≈ 6.2 µM)
- MIC [8]: >128 µg/mL
- MIC [9]: >128 µg/mL
- MIC [10]: >128 µg/mL
